Test results: US20260116902A1, “NOVEL COMPOUND AS FUNCTIONAL ANTAGONIST FOR S1PR1 AND S1PR4” (NEXTGEN BIOSCIENCE CO., LTD., priority 2024, published 2026)

Target: T1, S1PR1 (Homo sapiens, UniProt P21453)
T1 construct: host or cells: CHO-K1 (PathHunter eXpress β-Arrestin GPCR cells)
Assay: β-arrestin recruitment assay (PathHunter CHO-K1), S1PR1
Assay type: cell-based
Settings: agonism
Experimental: To this end, each of the cell lines in which S1PR1, S1PR2, S1PR3, and S1PR4 are overexpressed (PathHunter® CHO-K1 eXpress β-Arrestin GPCR cells; DiscoverX, Fremont, USA) was seeded in a 384-well plate at 5000 cells/well and cultured using an AssayComplete™ Cell Culture Kit-107 (DiscoverX, Fremont, USA). […] A PathHunter detection reagent cocktail (DiscoverX, Fremont, USA) was added in accordance with the manufacturer's instructions and incubated for 1 hour, followed by measuring a chemiluminescent signal (luminescence reader, 0.1 to 1 second/well).

T1 sequence (P21453 whole entry): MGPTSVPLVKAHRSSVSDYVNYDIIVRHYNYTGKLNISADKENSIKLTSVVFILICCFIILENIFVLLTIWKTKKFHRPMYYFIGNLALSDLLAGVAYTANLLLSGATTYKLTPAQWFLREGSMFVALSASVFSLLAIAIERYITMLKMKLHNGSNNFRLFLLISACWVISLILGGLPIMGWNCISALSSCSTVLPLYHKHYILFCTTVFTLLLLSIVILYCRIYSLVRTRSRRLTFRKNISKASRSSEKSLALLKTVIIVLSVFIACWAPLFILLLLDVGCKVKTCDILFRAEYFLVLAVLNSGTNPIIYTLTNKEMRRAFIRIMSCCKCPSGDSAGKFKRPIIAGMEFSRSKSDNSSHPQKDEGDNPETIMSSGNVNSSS

- EC50: 16.3 nM
Compound: CCCCCCCCCCCCC/C=C/[C@@H](O)[C@@H](N)COP(=O)(O)O [Compound S1P, sphingosine-1-phosphate]
